Earlier results, collected in publication PMC5721631 (BMJ Open Ophthalmology, 2017).

System: adrenal cortisol biosynthesis (CYP11B1)
Settings: single oral administration

CC(C)(C(=O)c1cccnc1)c1cccnc1 [Metpyrapone, metyrapone]
plasma cortisol reduction from baseline: Up to about 80% plasma cortisol reduction from baseline
